Laboratory results published in paper PMC5550456, “Vitamin B12 as a carrier of peptide nucleic acid (PNA) into bacterial cells” (Scientific Reports, 2017).
Where no end group is shown, it is not given here.

Key:
[1] = cited from earlier work
Text: (§1) The most serious drawback, which currently precludes the use of this approach, is poor delivery of the oligonucleotides into bacterial cells. The bacterial cell wall prevents the efficient uptake of short oligonucleotides from the environment[14] and non-invasive delivery of PNAs is extremely difficult. To overcome this problem, chemical conjugation of PNA to a variety of cell-penetrating peptides has been tested, [15], [16]. The most commonly used conjugate of PNA with the peptide (KFF)3K was delivered with high efficiency in vitro. However, the activity of (KFF)3K-PNA conjugates was drama ...

some mammalian cells = settings: cited from earlier work
Text: as §1

[2] = tested on: mRNA of the reporter gene mrfp1 expressing Red Fluorescent Protein; test: Inhibition of RFP synthesis (red fluorescence) in E. coli carrying pBBR(rfp); type: cell-based, Escherichia coli K-12 MG1655; settings: overnight treatment, 0–16 µM
Procedure: E. coli TG1[58] was used for plasmid construction. For triparental mating, E. coli DH5α carried the helper plasmid pRK2013[59] and E. coli S17-1[60] was the mrfp1 plasmid donor. E. coli K-12 MG1655[61], and Salmonella enterica subsp. enterica serovar Typhimurium LT2-R (rifampicin resistant mutant of wild-type S. Typhimurium LT2[62]) were used in PNA delivery experiments. To prepare inocula, all strains were grown overnight in lysogeny broth (LB) at 37 °C with shaking. […] Cultures were supplemented with appropriate antibiotics to prevent plasmid loss.
The effect of the different PNA conjugates and controls on the red fluorescence of bacterial cells was determined using a standard microdilution method[67] in concentration range 0–16 µM. […] Following overnight incubation at 37 °C with shaking, the plates were vigorously shaken (double orbital) for 10 sec and then the cell density (OD600) and fluorescence (λ excitation – 584 nm; λ emission – 610 nm) were measured using a plate reader (Microplate Reader Biotek Synergy H1MFDG). The cell suspensions were also examined by light and fluorescence microscopy using a Nikon Eclipse Ni-U microscope (Figure S1).
To obtain relative fluorescence values (RFU), the background media noise was subtracted from each data point for both cell density (OD600) and fluorescence. […]

E. coli = test: Effect on bacterial growth (OD600) of E. coli; type: cell-based, Escherichia coli; settings: up to the tested 16 μM concentrations
Procedure: (§2) The effect of the different PNA conjugates and controls on the red fluorescence of bacterial cells was determined using a standard microdilution method[67] in concentration range 0–16 µM. Cultures grown to exponential phase in Davis Minimal Broth were diluted to ~5 × 10^5 CFU/ml. These cell suspensions were added to wells of sterile 96-well plates containing different concentrations of the tested compounds. Following overnight incubation at 37 °C with shaking, the plates were vigorously shaken (double orbital) for 10 sec and then the cell density (OD600) and fluorescence (λ excitation – 584 nm; λ emission – 610 nm) were measured using a plate reader (Microplate Reader Biotek Synergy H1MFDG). The cell suspensions were also examined by light and fluorescence microscopy using a Nikon Eclipse Ni-U microscope (Figure S1).

S. Typhimurium = test: Effect on bacterial growth (OD600) of S. Typhimurium; type: cell-based, Salmonella Typhimurium; settings: up to the tested 16 μM concentrations
Procedure: as §2

[3] = cited from earlier work; remark: listed apart in the source
Procedure: There was no decrease in OD600 upon overnight treatment with the conjugates (up to the tested 16 μM concentrations). Free vitamin B12 has no antibacterial activity at concentrations up to 100 μg/ml[52].

Substance	concentration with hemolytic activity [1] [ng/mL]	histamine release (some mammalian cells)	inhibition of RFP synthesis / mrfp1 expression (in words) [2]	bacterial growth, OD600 after overnight incubation (E. coli)	bacterial growth, OD600 after overnight incubation (S. Typhimurium)	concentration without antibacterial activity [3] [µg/mL]
KFFKFFKFFK-NH2 [(KFF)3K only]	40000	initiates histamine release	–	–	–	–
cyanocobalamin [vitamin B12]	–	–	Neither B12–(CH2)12-PNA(scrambled) (Fig. 6) nor free vitamin B12 (data not shown) had any inhibitory effect	slight increase of OD600	slight increase of OD600	> 100
